Common to all, as to assay: DTP human tumour cell line panel, 48 h
Test [1] deals with A498 renal.
In test [2] the test system is EKVX NSCLC.
For test [3], the system named is HS 578T breast.
The subject of test [4] is MALME-3M melanoma.
In test [5] the test system is NCI-H460 lung.
Test [6] concerns SF-539 CNS.
The test system of test [7] is SN12C renal.
Test [8] has as its system COLO 205 colon.
The subject of test [9] is HCT-116 colon.
Test [10] concerns K-562 leukemia.

Where “and” joins values, the source holds several entries; their conditions need not be identical. Identical values can stand only once.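 Tested at 5 concentrations; 48 h exposure; 96-well plates; endpoints linearly interpolated, else capped at highest concentration. GI50 is the concentration that inhibits growth by half. Definition used: TGI = concentration required for complete inhibition of growth.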 Bounds are passed on as bounds.

Take `CC(C)CCN(CCC(C)C)CC(=O)Nc1ccc(S(=O)(=O)c2ccc(NC(=O)CN(CCC(C)C)CCC(C)C)cc2)cc1`: the GI50 in test [1] was 16.5 µM; in test [2] it was 3.27 µM; in [3] it was 5.37 µM; in test [4], 1.57 µM; in test [5] it was 2070 nM; in test [6], 1.57 µM. Further, the GI50 in [7] was 3.1 µM. In addition, the TGI turned out to be 38.8 µM in [1]; 18.8 µM in test [2]; 70.3 µM in test [3]; 3.51 µM in test [4]; 6.1 µM in test [5]; 3.07 µM in test [6]. The TGI in test [7] came to 25.2 µM.
Take `C=C(CN(C)C)C(=O)c1ccccc1OC`: the TGI in test [1] is 64 µM; in [8], 11 µM; in [2] it was 48.6 µM; in [9], 30.9 µM; in [3] it was 56.8 µM; in [10], more than 54.1 µM. Further, the TGI came to 16.5 µM in test [4], 63.2 µM in test [5], 31.5 µM in test [6] and 40 µM in test [7].
As to `N#Cc1c(-c2ccc([N+](=O)[O-])cc2)c2c([nH]c1=O)-c1ccccc1CCC2`, the TGI in [1], in [8], in [2], in [9], in test [3] and in test [10] was more than 100 µM each time. The TGI in [4], in test [5], in [6] and in test [7] was more than 100 µM each time.
Regarding `O=C1OC(c2ccc(O)cc2)(c2ccc(O)cc2)c2ccc(Cl)c3cccc1c23` (tested in a mixture with another compound), the TGI was more than 75 µM in [1]; 9.06 µM in test [8]; 4.88 µM in [2]; 18.9 µM in [9]; 40.6 µM in test [3]; more than 75 µM in test [10]. The TGI came to 29.1 µM in [4], 23.7 µM in [5], 20.8 µM in [6] and 27.7 µM in test [7].
On to `CC(=O)OC(C(=O)O)C(OC(C)=O)C(OC(C)=O)C(OC(C)=O)C(=O)O` (stereo not given), for which the TGI in test [1], in test [8], in test [2], in [9], in test [3] and in test [10] was more than 100 µM throughout. The TGI in test [4], in test [5], in test [6] and in test [7] was more than 100 µM each time.
On to `Cc1csc2nc(-c3cccc([N+](=O)[O-])c3)c(/C=N/N=C(N)N)n12`, for which the TGI in test [1] worked out at 2.92 µM; in test [8], 3 µM; in test [2] it was 2.96 µM; in test [9], 3.3 µM; in [3] it was 3.45 µM; in test [5] it was 9.61 µM. In addition, the TGI in [6] is 4.71 µM; in test [7], 3.11 µM.
With `O=C(O)c1cc2ccccc2c(N=Nc2ccc(S(=O)(=O)Nc3ccccn3)cc2)c1O`, the TGI in [8], in [2], in [9], in [3], in test [10] and in test [4] was more than 100 µM throughout. The TGI in [5], in [6] and in test [7] was more than 100 µM throughout.
Take `COc1ccccc1C#C/C=C\C#Cc1ccccc1C#N`: the concentration for total growth inhibition (TGI) was 37.1 µM in [8]; 58.7 µM in test [2]; 27.7 µM in test [9]; 65.4 µM in test [3]; more than 100 µM in [10]; 47.7 µM in test [4]. The TGI in test [5] was more than 100 µM; in [6] it was 82.7 µM; in test [7], more than 100 µM.
Turning to `COC(=O)c1c(O)ccc2c1c1c(n2CCc2ccc(OC)c(OC)c2)C(=O)c2ccccc2C1=O`, the TGI was 32.9 µM in test [1]; 11.1 µM in test [8]; 40.8 µM in [2]; 26.7 µM in test [9]; 37.2 µM in [3]; more than 100 µM in [10]. Also, the TGI in test [4] was 29.2 µM; in test [5] it was 19.5 µM; in [6] it was 28.1 µM; in [7] it was 50.9 µM.
For the molecule `Cc1ncc(C(=O)Nc2ccc(CN3CCN(C)CC3)c(C(F)(F)F)c2)cc1C#Cc1cnc(N)c2ccc(C#N)cc12`, the GI50 in test [8] is 0.0146 µM; in test [2], 0.0827 µM; in [6], 0.0796 µM; in test [7], less than 0.0124 µM. The TGI in [8] was more than 100 µM; in test [2], 29.6 µM; in [6] it was 1.45 µM; in [7], 5.01 µM.
Take `Brc1ccc(-c2[nH]c3ccccc3c2/C=N\Nc2ccc(-c3nc4ccccc4[nH]3)cc2)cc1`: the TGI in test [8] is 0.0834 µM; in test [2], more than 52.2 µM; in test [3], less than 0.01 µM; in test [10], more than 39.2 µM; in test [4], 24 µM; in test [5], more than 51.6 µM. The same molecule had a TGI in test [7] of more than 100 µM.
On to `CC[C@@]1(O)CC(OC2CC(N3CCOCC3)C(O)C(C)O2)c2c(O)c3c(c(O)c2[C@H]1O)C(=O)c1cccc(O)c1C3=O` (stereo not given in full), for which the GI50 was 0.07 µM in [1]; 0.0433 µM in [8]; 0.241 µM in test [2]; 0.0149 µM in test [9]; 0.0426 µM in [10]; 0.034 µM in [4]. The GI50 in [5] is 0.052 nM; in [6], 0.0233 µM; in [7], 0.0465 µM. The TGI is 0.634 µM and 0.229 µM in test [1]; 0.897 µM and 2.14 µM in test [8]; 1.02 µM and 1.63 µM in [2]; 4.27 µM and 3.5 µM in [9]; 1.61 µM in test [3]; 6.69 µM and 4.03 µM in test [10]. The TGI in [4] is 0.258 µM and 0.339 µM; in test [5], 0.554 µM and 0.113 µM; in test [6] it was 1.07 µM and 0.71 µM; in test [7] it was 2.17 µM and 9.19 µM.
With `O=S(=O)(c1ccccc1)C1CC(c2nc3ccccc3[nH]2)=NO1` (stereo not given), the concentration for total growth inhibition (TGI) in test [1], in test [8], in test [2], in test [9], in test [3] and in test [10] was more than 100 µM in each case. The TGI in test [4], in [5], in test [6] and in test [7] was more than 100 µM in each case.
`Cc1[nH]c(C(=O)Nc2ccc(C(=O)NCCN)cc2OC(C)C)c(Cl)c1Cl`: the GI50 in [2] was 1.62 µM; in test [4] it was 1.46 µM; in test [6] it was 1.68 µM; in [7], 1.82 µM. For the same molecule, the TGI in test [2] came to 3.17 µM; in test [4], 3.19 µM; in [6], 3.14 µM; in test [7], 3.41 µM.
As for `O=C(CSCC(=O)N/N=C\c1ccc(F)cc1F)N/N=C\c1ccc(F)cc1F`, the TGI in [1], in test [8], in test [2], in [9], in [3] and in test [4] was more than 100 µM in each case. Also, the TGI in test [5], in test [6] and in test [7] was more than 100 µM each time.
As to `c1ccc(CSC(SCc2ccccc2)c2cccc3ccccc23)cc1`, the TGI in test [1], in test [8], in test [2], in test [9], in [3] and in test [10] was more than 10 µM in each case. Further, the total growth inhibition concentration (TGI) in [4], in [5], in [6] and in test [7] was more than 10 µM each time.
With `C[n+]1c2ccccc2c(N=[N+]=[N-])c2ccccc21`, the TGI in test [1], in test [8], in test [2], in test [9], in [3] and in test [10] was more than 10 µM throughout. For the same molecule, the TGI in test [4], in test [5], in test [6] and in [7] was more than 10 µM throughout.
Turning to `C[N+]1(C(CO)Cc2c[nH]c3ccccc23)Cc2ccccc2C1` (stereo not given), the TGI in [1], in test [8], in [2], in test [9], in test [3] and in test [10] was more than 100 µM in each case. In addition, the TGI in test [4] is 81 µM; in test [5], more than 100 µM; in test [7], more than 100 µM.

The term GI50 denotes the concentration giving 50% growth inhibition. One may read the TGI as the concentration at which net growth stops.
